From PubChem BioAssay AID256 (DTP/NCI, 2004)
Toxic doses and inconclusive results are not listed. Starred links: 1 amine or outer side, 2 acyl side, 3 side chain; linkers in the order of their positions; H or OH if unused. Positions of bridges follow the written chain, without caps; N, C: chain ends. Non-standard residues stand in square brackets, D forms with d. Residues, ends and D or L forms follow the SMILES beside them. Chains are numbered I, II in the order given. Actinocin(1to9) = Cc1c2oc3c(C)ccc(C(=O)[*:2])c3nc-2c(C(=O)[*:1])c(N)c1=O; NMeV = CN[CH](C(=O)O)C(C)C; Aze = O=C(O)[CH]1CCN1; Sar = CNCC(=O)O

System: CD2F1 mice, L1210 leukemia ip, survival T/C
Experiment: NCI In Vivo Anticancer Drug Screen. Data for tumor model L1210 Leukemia (intraperitoneal) in CD2F1 (CDF1) mice
Settings: higher = longer survival
How it was run: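 In this screen, transplantable tumors were grown in mice given either the compound or its vehicle. Results were expressed as the treated measurement relative to the control measurement.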

[1] = endpoint: mean survival time, dose: 100.0 mg/kg/injection, schedule: Q01DX001 (ip), vehicle: saline
[2] = endpoint: mean survival time, dose: 200.0 mg/kg/injection, schedule: Q01DX001 (ip), vehicle: saline
[3] = endpoint: mean survival time, dose: 400.0 mg/kg/injection, schedule: Q01DX001 (ip), vehicle: saline
[4] = endpoint: mean survival time, dose: 100.0 mg/kg/injection, schedule: Q01DX001 (ip), vehicle: saline with Tween-80
[5] = endpoint: mean survival time, dose: 200.0 mg/kg/injection, schedule: Q01DX001 (ip), vehicle: saline with Tween-80
[6] = endpoint: mean survival time, dose: 100.0 mg/kg/injection, schedule: Q01DX009 (ip), vehicle: saline with Tween-80
[7] = endpoint: mean survival time, dose: 200.0 mg/kg/injection, schedule: Q01DX009 (ip), vehicle: saline with Tween-80
[8] = endpoint: mean survival time, dose: 400.0 mg/kg/injection, schedule: Q01DX009 (ip), vehicle: saline with Tween-80
[9] = endpoint: mean survival time, dose: 50.0 mg/kg/injection, schedule: Q01DX009 (ip), vehicle: saline
[10] = endpoint: mean survival time, dose: 100.0 mg/kg/injection, schedule: Q01DX009 (ip), vehicle: saline
[11] = endpoint: mean survival time, dose: 100.0 mg/kg/injection, schedule: Q04DX003 (ip), vehicle: saline with Tween-80
[12] = endpoint: mean survival time, dose: 200.0 mg/kg/injection, schedule: Q04DX003 (ip), vehicle: saline with Tween-80
[13] = endpoint: mean survival time, dose: 400.0 mg/kg/injection, schedule: Q04DX003 (ip), vehicle: saline with Tween-80

Structure (SMILES): CCOC(=O)Nc1cccc2c1-c1ccccc1/C2=N\NC(N)=S
- T/C (endpoint: mean survival time, dose: 50.0 mg/kg/injection, schedule: Q01DX001 (ip), vehicle: carboxymethylcellulose (CMC)): 102 % of control
- T/C (endpoint: mean survival time, dose: 100.0 mg/kg/injection, schedule: Q01DX001 (ip), vehicle: carboxymethylcellulose (CMC)): 104 % of control
- T/C (endpoint: mean survival time, dose: 200.0 mg/kg/injection, schedule: Q01DX001 (ip), vehicle: carboxymethylcellulose (CMC)): 98 % of control
- T/C (endpoint: mean survival time, dose: 400.0 mg/kg/injection, schedule: Q01DX001 (ip), vehicle: carboxymethylcellulose (CMC)): 98 % of control

Structure (SMILES): COC1OC(CO)C(O)C(OC)C1OC (stereo not given) (tested in a mixture with another compound)
- T/C [1]: 100 % of control
- T/C [2]: 100 % of control
- T/C [3]: 100 % of control

Structure (SMILES): c1ccc2c(c1)OCC(CN1CCc3[nH]c4ccccc4c3C1)O2 (stereo not given)
- T/C (endpoint: mean survival time, dose: 50.0 mg/kg/injection, schedule: Q01DX001 (ip), vehicle: saline with Tween-80): 106 % of control
- T/C [4]: 98 % of control
- T/C [5]: 93 % of control

Structure (SMILES): C=CCS(=O)[O-].[C-]#[O+].[C-]#[O+].[Fe+6].[c-]1[c-][c-][cH-][c-]1
- T/C (endpoint: mean survival time, dose: 12.5 mg/kg/injection, schedule: Q04DX002 (ip), vehicle: saline): 97 % of control
- T/C (endpoint: mean survival time, dose: 25.0 mg/kg/injection, schedule: Q04DX002 (ip), vehicle: saline): 102 % of control
- T/C (endpoint: mean survival time, dose: 50.0 mg/kg/injection, schedule: Q04DX002 (ip), vehicle: saline): 100 % of control

Structure (SMILES): CC(C)OC(=O)COc1ccc(F)cc1F
- T/C (endpoint: mean survival time, dose: 100.0 mg/kg/injection, schedule: Q04DX002 (ip), vehicle: saline with Tween-80): 92 % of control
- T/C (endpoint: mean survival time, dose: 200.0 mg/kg/injection, schedule: Q04DX002 (ip), vehicle: saline with Tween-80): 95 % of control
- T/C (endpoint: mean survival time, dose: 400.0 mg/kg/injection, schedule: Q04DX002 (ip), vehicle: saline with Tween-80): 89 % of control

Structure (SMILES): CCOC(=O)/C=C/C1=CCCCC1
- T/C (endpoint: mean survival time, dose: 50.0 mg/kg/injection, schedule: Q01DX009 (ip), vehicle: saline with Tween-80): 101 % of control
- T/C [6]: 96 % of control
- T/C [7]: 108 % of control

Structure (SMILES): CCCCC(CC)C(=O)N1CCOCC1 (stereo not given)
- T/C [6]: 96 % of control
- T/C [7]: 92 % of control
- T/C [8]: 86 % of control

Structure (SMILES): CC(=O)Oc1ccc(/C=C2\CCOC2=O)cc1
- T/C (endpoint: mean survival time, dose: 7.82 mg/kg/injection, schedule: Q01DX005 (ip), vehicle: Klucel (hydroxypropylcellulose) (HPC)): 112 % of control
- T/C (endpoint: mean survival time, dose: 15.63 mg/kg/injection, schedule: Q01DX005 (ip), vehicle: Klucel (hydroxypropylcellulose) (HPC)): 101 % of control
- T/C (endpoint: mean survival time, dose: 31.25 mg/kg/injection, schedule: Q01DX005 (ip), vehicle: Klucel (hydroxypropylcellulose) (HPC)): 106 % of control
- T/C (endpoint: mean survival time, dose: 62.5 mg/kg/injection, schedule: Q01DX005 (ip), vehicle: Klucel (hydroxypropylcellulose) (HPC)): 107 % of control
- T/C (endpoint: mean survival time, dose: 125.0 mg/kg/injection, schedule: Q01DX005 (ip), vehicle: Klucel (hydroxypropylcellulose) (HPC)): 109 % of control
- T/C (endpoint: mean survival time, dose: 250.0 mg/kg/injection, schedule: Q01DX005 (ip), vehicle: Klucel (hydroxypropylcellulose) (HPC)): 109 % of control

Structure (SMILES): CN(C)c1nc2c(N)ncnc2n1C1OC(CO)C(O)C1O (stereo not given)
- T/C (endpoint: mean survival time, dose: 10.0 mg/kg/injection, schedule: Q04DX002 (ip), vehicle: saline with Tween-80): 103 % of control
- T/C (endpoint: mean survival time, dose: 20.0 mg/kg/injection, schedule: Q04DX002 (ip), vehicle: saline with Tween-80): 98 % of control
- T/C (endpoint: mean survival time, dose: 40.0 mg/kg/injection, schedule: Q04DX002 (ip), vehicle: saline with Tween-80): 98 % of control
- T/C (endpoint: mean survival time, dose: 50.0 mg/kg/injection, schedule: Q01DX001 (ip), vehicle: saline): 100 % of control
- T/C [9]: 123 % of control
- T/C [1]: 106 % of control
- T/C [10]: 100 % of control
- T/C [2]: 102 % of control

Structure (SMILES): Cc1c2oc3c(C)ccc(C(=O)NC4C(=O)NC(C(C)C)C(=O)N5CCCC5C(=O)N(C)CC(=O)N(C)C(C(C)C)C(=O)OC4C)c3nc-2c(C(=O)NC2C(=O)NC(C(C)C)C(=O)N3CCC3C(=O)N(C)CC(=O)N(C)C(C(C)C)C(=O)OC2C)c(N)c1=O (stereo not given) (I: TV[Aze][Sar][NMeV] / II: TVP[Sar][NMeV]; ester I:1-I:C, II:1-II:C; linker I:N-II:N via Actinocin(1to9); configuration not given here)
- T/C (endpoint: mean survival time, dose: 37.0 micrograms/kg/injection, schedule: Q01DX009 (ip), vehicle: saline + alcohol): 103 % of control
- T/C (endpoint: mean survival time, dose: 75.0 micrograms/kg/injection, schedule: Q01DX009 (ip), vehicle: saline + alcohol): 117 % of control
- T/C (endpoint: mean survival time, dose: 300.0 micrograms/kg/injection, schedule: Q01DX009 (ip), vehicle: saline + alcohol): 151 % of control
- T/C (endpoint: mean survival time, dose: 600.0 micrograms/kg/injection, schedule: Q01DX009 (ip), vehicle: saline + alcohol): 109 % of control
- T/C (endpoint: median survival time, dose: 12.5 micrograms/kg/injection, schedule: Q01DX009 (ip), vehicle: saline): 108 % of control
- T/C (endpoint: median survival time, dose: 25.0 micrograms/kg/injection, schedule: Q01DX009 (ip), vehicle: saline): 115 % of control
- T/C (endpoint: median survival time, dose: 50.0 micrograms/kg/injection, schedule: Q01DX009 (ip), vehicle: saline): 115 % of control
- T/C (endpoint: median survival time, dose: 100.0 micrograms/kg/injection, schedule: Q01DX009 (ip), vehicle: saline): 123 % of control
- T/C (endpoint: median survival time, dose: 200.0 micrograms/kg/injection, schedule: Q01DX009 (ip), vehicle: saline): 150 % of control
- T/C (endpoint: median survival time, dose: 400.0 micrograms/kg/injection, schedule: Q01DX009 (ip), vehicle: saline): 91 % of control

Structure (SMILES): O=C1CCC2(CC1C1C=CCC1)OCCO2 (stereo not given)
- T/C [6]: 91 % of control
- T/C [11]: 100 % of control
- T/C [7]: 94 % of control
- T/C [12]: 102 % of control
- T/C [8]: 100 % of control
- T/C [13]: 98 % of control

Structure (SMILES): O=C(Nc1ccc(N(CCCl)CCCl)cc1)c1ccccc1
- T/C (endpoint: mean survival time, dose: 100.0 mg/kg/injection, schedule: Q04DX003 (ip), vehicle: Klucel (hydroxypropylcellulose) (HPC)): 96 % of control
- T/C (endpoint: mean survival time, dose: 200.0 mg/kg/injection, schedule: Q04DX003 (ip), vehicle: Klucel (hydroxypropylcellulose) (HPC)): 101 % of control
- T/C (endpoint: mean survival time, dose: 400.0 mg/kg/injection, schedule: Q04DX003 (ip), vehicle: Klucel (hydroxypropylcellulose) (HPC)): 109 % of control

Structure (SMILES): Nc1ccc(C(=O)O)cc1
- T/C [4]: 95 % of control
- T/C [5]: 100 % of control
- T/C (endpoint: mean survival time, dose: 400.0 mg/kg/injection, schedule: Q01DX001 (ip), vehicle: saline with Tween-80): 101 % of control

Structure (SMILES): COC(=O)C(NC(=O)C(CSC(c1ccccc1)(c1ccccc1)c1ccccc1)NC(c1ccccc1)(c1ccccc1)c1ccccc1)C(C)C (stereo not given)
- T/C [9]: 98 % of control
- T/C [10]: 92 % of control
- T/C (endpoint: mean survival time, dose: 200.0 mg/kg/injection, schedule: Q01DX009 (ip), vehicle: saline): 97 % of control
- T/C (endpoint: mean survival time, dose: 400.0 mg/kg/injection, schedule: Q01DX009 (ip), vehicle: saline): 89 % of control

Structure (SMILES): O=C(O)CC1=C(c2ccc3ccccc3c2)CCC1=O
- T/C [1]: 98 % of control
- T/C [2]: 98 % of control
- T/C [3]: 98 % of control

Structure (SMILES): N#Cc1cnn2ccn(C3OC(COC(=O)c4ccccc4)C(OC(=O)c4ccccc4)C3OC(=O)c3ccccc3)c12 (stereo not given)
- T/C (endpoint: median survival time, dose: 50.0 mg/kg/injection, schedule: Q01DX005 (ip), vehicle: saline with Tween-80): 90 % of control
- T/C (endpoint: median survival time, dose: 100.0 mg/kg/injection, schedule: Q01DX005 (ip), vehicle: saline with Tween-80): 98 % of control
- T/C (endpoint: median survival time, dose: 200.0 mg/kg/injection, schedule: Q01DX005 (ip), vehicle: saline with Tween-80): 94 % of control

Structure (SMILES): Cc1cc(=O)[nH]c(N/N=C/c2ccc(N(C)C)cc2)n1
- T/C [6]: 91 % of control
- T/C [11]: 104 % of control
- T/C [7]: 88 % of control
- T/C [12]: 95 % of control
- T/C [8]: 86 % of control
- T/C [13]: 92 % of control

Structure (SMILES): CC(C)CNC(=O)Nc1ccccc1C(F)(F)F
- T/C [6]: 96 % of control
- T/C [7]: 98 % of control
- T/C [8]: 91 % of control

Structure (SMILES): CCCOS(=O)(=O)O
- T/C [1]: 106 % of control
- T/C [2]: 102 % of control
- T/C [3]: 106 % of control

Structure (SMILES): CCN1CCCC(Nc2nc(Nc3cc(Cl)cc(Cl)c3)nc3ccc(Cl)cc23)C1 (stereo not given)
- T/C (endpoint: mean survival time, dose: 25.0 mg/kg/injection, schedule: Q01DX009 (ip), vehicle: saline with Tween-80): 103 % of control
- T/C [11]: 90 % of control

Structure (SMILES): O=[n+]1ccn2cc3ccccc3cc2c1
- T/C (endpoint: mean survival time, dose: 12.5 mg/kg/injection, schedule: Q04DX003 (ip), vehicle: saline with Tween-80): 86 % of control
- T/C (endpoint: mean survival time, dose: 50.0 mg/kg/injection, schedule: Q04DX003 (ip), vehicle: saline with Tween-80): 100 % of control

Structure (SMILES): O.O.[Cl][Pt+2][Cl].[NH-]CC1(C[NH-])CCCCC1
- T/C (endpoint: median survival time, dose: 3.12 mg/kg/injection, schedule: Q04DX003 (ip), vehicle: saline): 121 % of control
